Experimental data from patent US7786141B2 (Vertex Pharmaceuticals Incorporated, priority 2004, dated 2010).
Read-outs that look alike come from different tables or passages of the source.

Legend:
M1 muscarinic receptor = target: T1, M1 muscarinic receptor (Homo sapiens, UniProt P11229); assay: Functional mobilization of intracellular calcium (FLIPR) in M1-CHO cells; assay type: cell-based
T1 construct: expressed in transfected cells; host or cells: CHO (M1-CHO)
T1 sequence (P11229 1-460): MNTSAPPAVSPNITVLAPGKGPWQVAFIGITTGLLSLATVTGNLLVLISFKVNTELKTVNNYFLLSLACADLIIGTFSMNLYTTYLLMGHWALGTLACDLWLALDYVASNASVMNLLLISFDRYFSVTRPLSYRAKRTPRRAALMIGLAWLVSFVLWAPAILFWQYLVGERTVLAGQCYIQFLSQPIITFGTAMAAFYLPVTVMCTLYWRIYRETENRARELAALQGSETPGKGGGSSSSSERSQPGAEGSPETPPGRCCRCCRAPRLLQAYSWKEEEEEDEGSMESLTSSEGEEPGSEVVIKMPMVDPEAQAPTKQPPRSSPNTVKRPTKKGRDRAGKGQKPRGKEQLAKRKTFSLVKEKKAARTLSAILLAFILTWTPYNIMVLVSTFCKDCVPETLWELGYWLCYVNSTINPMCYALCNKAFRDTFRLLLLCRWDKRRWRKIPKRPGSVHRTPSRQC
How it was run: (§1)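 CHO cells stably expressing human M1 or M4 receptor were loaded with Fluo-3 AM (or Calcium 3 dye) in Hepes-buffered saline, pH 7.4, with 1 mM probenecid, 0.5% final DMSO. Agonist mode: compound added directly; antagonist mode: 15 min preincubation before carbachol at EC80. FLIPR fluorescence recorded 60 sec.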

M4 muscarinic receptor = target: T2, M4 muscarinic receptor (Homo sapiens, UniProt P08173); assay: Functional mobilization of intracellular calcium (FLIPR) in M4-CHO cells; assay type: cell-based
T2 construct: expressed in transfected cells; host or cells: CHO (M4-CHO)
T2 sequence (P08173 1-479): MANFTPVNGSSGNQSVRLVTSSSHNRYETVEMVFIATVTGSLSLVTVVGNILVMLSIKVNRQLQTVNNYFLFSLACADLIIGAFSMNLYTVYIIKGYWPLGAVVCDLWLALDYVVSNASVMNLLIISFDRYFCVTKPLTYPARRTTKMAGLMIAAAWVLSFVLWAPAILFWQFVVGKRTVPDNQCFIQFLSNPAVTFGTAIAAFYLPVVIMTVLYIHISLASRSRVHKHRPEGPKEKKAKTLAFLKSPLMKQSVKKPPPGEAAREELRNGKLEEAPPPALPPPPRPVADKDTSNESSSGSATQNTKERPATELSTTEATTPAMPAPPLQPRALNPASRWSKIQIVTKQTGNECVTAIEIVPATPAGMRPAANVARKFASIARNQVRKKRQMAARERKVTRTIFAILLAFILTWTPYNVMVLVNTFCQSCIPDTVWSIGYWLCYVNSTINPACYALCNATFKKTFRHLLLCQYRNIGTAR
How it was run: as §1

[1] = Table 4, 100% efficacy is the maximum response obtained with the Carbachol control
[2] = Table 4, modulating M1 receptor
[3] = Table 4, modulating M4 receptor
[4] = M1 receptor, calcium mobilization
[5] = M1 receptor, calcium mobilization, read-out: M1 Efficacy
[6] = M4 receptor, calcium mobilization
[7] = M4 receptor, calcium mobilization, read-out: M4 Efficacy

For `CC(=O)N[C@H]1CCC2(CCN(CCC3CCN(C(=O)OC(C)(C)C)CC3)CC2)c2ccccc21` [compound 575], which Emax (M1 muscarinic receptor; [1]) is on record?
The Emax was under 25%.

And the “M1 Activity” value (M1 muscarinic receptor; [2])?
The value was “x (activity was measured to be greater than 5.0 μM)”.

And the Emax (M4 muscarinic receptor; [1])?
Its Emax is under 25%.

What about the “M4 Activity” value (M4 muscarinic receptor; [3]) of the same compound?
The value was “x (activity was measured to be greater than 5.0 μM)”.

`CC(=O)NC1CC2(CCN(C3CCCCC3)CC2)c2ccccc21` (stereo not shown) [compound 2] was tested. Which “M1 Activity” value (M1 muscarinic receptor; [4]) did it give?
Its value is “x (activity was measured to be greater than 1.0 μM)”.

What about the Emax (M1 muscarinic receptor; [5]) of the same compound?
Its Emax is under 65%.

What about the “M4 Activity” value (M4 muscarinic receptor; [6]) of the same compound?
The value was “x (activity was measured to be greater than 1.0 μM)”.

And the Emax (M4 muscarinic receptor; [7])?
Its Emax is under 65%.

What does the source list for `CN(C)C(=O)N1CC2(CCN(C3CCN(C(=O)O[C@@H]4CCOC4)CC3)CC2)c2cc(F)ccc21` [compound 209]?
M1 Activity (M1 muscarinic receptor; [4]): xx (activity was measured to be between 0.1 μM and 1.0 μM); Emax (M1 muscarinic receptor; [5]): > 85%; M4 Activity (M4 muscarinic receptor; [6]): x (activity was measured to be greater than 1.0 μM); Emax (M4 muscarinic receptor; [7]): < 65%

Which results are given for `CCCCOC(=O)N1C2CCC1CC(N1CCC3(CC1)COc1ccc(F)cc13)C2` (stereo not shown) [compound 286]?
M1 Activity (M1 muscarinic receptor; [4]): xx (activity was measured to be between 0.1 μM and 1.0 μM); Emax (M1 muscarinic receptor; [5]): < 65%; M4 Activity (M4 muscarinic receptor; [6]): x (activity was measured to be greater than 1.0 μM); Emax (M4 muscarinic receptor; [7]): < 65%

For `CN(C)C(=O)N1CC2(CCN(C3CC4CCC(C3)N4C(=O)O[C@@H]3CCOC3)CC2)c2cc(F)ccc21` (stereo partly shown) [compound 188], which “M1 Activity” value (M1 muscarinic receptor; [4]) is on record?
Its value is “x (activity was measured to be greater than 1.0 μM)”.

What about the Emax (M1 muscarinic receptor; [5]) of the same compound?
The Emax was under 65%.

What about the “M4 Activity” value (M4 muscarinic receptor; [6]) of the same compound?
The value was “x (activity was measured to be greater than 1.0 μM)”.

And the Emax (M4 muscarinic receptor; [7])?
The Emax was 65 to 85%.

For `CCOC(=O)N1C2CCC1CC(N1CCC3(CC1)CN(C(=O)O[C@@H]1CCOC1)c1ccc(F)cc13)C2` (stereo partly shown) [compound 28], which “M1 Activity” value (M1 muscarinic receptor; [4]) is on record?
The value was “xxx (activity was measured to be less than 0.1 μM)”.

What about the Emax (M1 muscarinic receptor; [5]) of the same compound?
Its Emax is over 85%.

And the “M4 Activity” value (M4 muscarinic receptor; [6])?
Its value is “xx (activity was measured to be between 0.1 μM and 1.0 μM)”.

And the Emax (M4 muscarinic receptor; [7])?
Its Emax is 65 to 85%.

`CC(=O)N1CC2(CCN(C3CCN(c4nn[nH]n4)CC3)CC2)c2ccccc21` [compound 710] was tested. Which Emax (M1 muscarinic receptor; [1]) did it give?
Its Emax is 25 to 100%.

What about the “M1 Activity” value (M1 muscarinic receptor; [2]) of the same compound?
The value was “x (activity was measured to be greater than 5.0 μM)”.

What about the Emax (M4 muscarinic receptor; [1]) of the same compound?
Its Emax is 25 to 100%.

And the “M4 Activity” value (M4 muscarinic receptor; [3])?
Its value is “x (activity was measured to be greater than 5.0 μM)”.

Which results are given for `CCOC(=O)N1CCCC(N2CCC3(CC2)CN(C(C)=O)c2ccc(F)cc23)CC1` (stereo not shown) [compound 309]?
M1 Activity (M1 muscarinic receptor; [4]): xx (activity was measured to be between 0.1 μM and 1.0 μM); Emax (M1 muscarinic receptor; [5]): > 85%; M4 Activity (M4 muscarinic receptor; [6]): x (activity was measured to be greater than 1.0 μM); Emax (M4 muscarinic receptor; [7]): < 65%

For `CCOC(=O)N1CC[C@@H](CN2CCC3(CC2)CN(C(C)=O)c2ccccc23)C1` [compound 843], which Emax (M1 muscarinic receptor; [1]) is on record?
The Emax was 25 to 100%.

And the “M1 Activity” value (M1 muscarinic receptor; Table 4, M1 receptor, calcium mobilization (FLIPR))?
Its value is “xxx (activity was measured to be less than 2.0 μM)”.

What about the Emax (M4 muscarinic receptor; [1]) of the same compound?
The Emax was 25 to 100%.

And the “M4 Activity” value (M4 muscarinic receptor; Table 4, M4 receptor, calcium mobilization (FLIPR))?
The value was “xxx (activity was measured to be less than 2.0 μM)”.

`Cc1nsc(N2CC3(CCN(C4CC5CCC(C4)N5c4nc(C)ns4)CC3)c3ccccc32)n1` (stereo not shown) [compound 451] was tested. Which Emax (M1 muscarinic receptor; [1]) did it give?
The Emax was 25 to 100%.

And the “M1 Activity” value (M1 muscarinic receptor; [2])?
The value was “xxx (activity was measured to be less than 2.0 μM)”.

And the Emax (M4 muscarinic receptor; [1])?
Its Emax is 25 to 100%.

And the “M4 Activity” value (M4 muscarinic receptor; [3])?
Its value is “xxx (activity was measured to be less than 2.0 μM)”.

With `CCOC(=O)N1CCC(N2CCC3(CC2)C[C@H](NC(C)=O)c2ccccc23)CC1` [compound 61] as the compound, how does the “M1 Activity” value (M1 muscarinic receptor; [4]) read?
Its value is “xxx (activity was measured to be less than 0.1 μM)”.

And the Emax (M1 muscarinic receptor; [5])?
Its Emax is 65 to 85%.

What about the “M4 Activity” value (M4 muscarinic receptor; [6]) of the same compound?
Its value is “xx (activity was measured to be between 0.1 μM and 1.0 μM)”.

And the Emax (M4 muscarinic receptor; [7])?
Its Emax is 65 to 85%.

For `CC(=O)CN1CC2(CCN(C3CC4CCC(C4)C3)CC2)c2cc(F)ccc21` (stereo not shown) [compound 462], which Emax (M1 muscarinic receptor; [1]) is on record?
The Emax was 25 to 100%.

What about the “M1 Activity” value (M1 muscarinic receptor; [2]) of the same compound?
Its value is “xxx (activity was measured to be less than 2.0 μM)”.

And the Emax (M4 muscarinic receptor; [1])?
The Emax was 25 to 100%.

And the “M4 Activity” value (M4 muscarinic receptor; [3])?
Its value is “xxx (activity was measured to be less than 2.0 μM)”.

What does the source list for `CCOC(=O)N1CCC(CN2CCC3(CCc4ccccc43)CC2)CC1` [compound 414]?
EC50 (M1 muscarinic receptor; M1-CHO cells, calcium mobilization (FLIPR)): > 1000 nM; Emax (M1 muscarinic receptor; M1-CHO cells, calcium mobilization (FLIPR), read-out: M1 Efficacy): < 65%; EC50 (M4 muscarinic receptor; M4-CHO cells, calcium mobilization (FLIPR)): > 1000 nM; Emax (M4 muscarinic receptor; M4-CHO cells, calcium mobilization (FLIPR), read-out: M4 Efficacy): < 65%
